This is an account of results in a melting point compilation (Tetko et al.; mined from patent text by program, amines drawn as free bases though some values may be those of a salt).

Molecules are shown by their SMILES.

Take `Cc1ccccc1C(=O)CN1C(=O)C(NC(=O)Nc2cccc(-c3nnn[nH]3)c2)N=C(C2CCCCC2)c2cccc(C)c21` (stereo unspecified): the melting point is 165 to 177 °C. As for `NC(=O)NCCn1cc(Cn2ccnc2)c2ccccc21`, the figure is 153 to 154 °C; as for `CS(=O)(=O)c1ccc(Nc2nccc(N3CCCc4c(O)cccc43)n2)cc1`, 242 to 245 °C. The same measure for `N#CC(C=O)c1ccccc1` (stereo unspecified): 161 to 163 °C; for `CCC(C)COC(=O)c1ccc(OC(=O)c2ccc(O)cc2)cc1` (stereo unspecified): 90.8 to 92.6 °C. As for `C=CCC(C(=O)NC)c1ccc(F)cc1` (stereo unspecified), the figure is 104 to 105 °C.

`CC(C)c1nc(N)c(N)c(=O)[nH]1` displayed a melting point of 198 to 200 °C. The same measure for `CSc1cc(C(C)(C)C)c(O)c(C(C)(C)C)c1`: 69 to 71 °C. The same measure for `Cc1oc(-c2ccccc2)nc1COc1ccc(Cn2cc(CCC(=O)O)c(-c3ccccc3)c2)cc1`: 124 to 125 °C. The same measure for `CCCCCCN(Cc1ccc2ccccc2n1)C(Nc1cc(C(C)(C)C)c(O)c(C(C)(C)C)c1)=C1C(=O)OC(C)(C)OC1=O`: 161 to 163 °C; for `CCOC(=O)c1c[nH]c2cc(F)c(OC)cc2c1=O`: 280 °C. On to `COc1ccc(C(C)(O)Cc2ccncc2)cc1OC1CCCC1` (stereo unspecified), for which the melting point was 99 to 101 °C.

`O=c1[nH]c(Nc2cccc(C(F)(F)F)c2)nc2c1ncn2CCO` showed a melting point of 347 to 349 °C. As to `CCCCCCCCCCCCCCOc1ccc(N)cc1OCCCCCCCCCCCCCC`, the melting point lay within 55 to 58 °C.

Compound `Cc1c(-c2ccc(C#N)cc2)c(C#N)c(C2CC2)n1Cc1cnc(Cl)c(CO)c1` displayed a melting point of 193 to 194 °C.

As for `NC(=O)[C@@H]1[C@H](Nc2c(Br)cnc3[nH]c(-c4ccc(N5CCOCC5)cc4)nc23)[C@H]2C=C[C@@H]1C2`, the melting point fell in the range of 283 to 284 °C.

Take `CC[C@@H](NC(=O)N1CC(=O)NC[C@H](Cc2cc(Cl)ccc2OC)C1=O)c1ccc(C(=O)O)c(N)c1`: the melting point lay in the range of 139 to 140 °C.

For the compound `Cc1ccc(C(=O)N2CCc3nnc(NN)cc3C2)cc1`, the melting point was in the range of 207 to 210 °C. The same measure for `COc1cc2c(Nc3ccc4cn[nH]c4c3)c(C#N)cnc2cc1OCCN1CCSCC1`: 213 to 215 °C; for `CN(C)c1ccc2c(c1)nc(/C=C/c1ccccc1)n2-c1ccccn1`: 170 to 171 °C. The same measure for `CCCN=CNc1cccc(O)n1`: 178 to 179 °C; for `CNC(=O)OCc1c(COC(=O)NC)c(-c2ccc(OC)cc2)n2c1Cc1ccccc1C2`: 182 to 184 °C.

In turn, `Cc1cc(Br)cnc1CCCCn1nnc2cc(Cc3cccnc3)cnc21` came in with a melting point of 114 to 115 °C. As for `CONCc1nc2cnc3ccccc3c2n1CC1CCOCC1`, the figure is 58 to 63 °C; as for `CNC(=O)N(OC)c1ccc(Oc2ccc3sncc3c2)c(Cl)c1`, 128 °C; as for `O=C(O)c1cc(Br)c(Cl)cc1O`, 208 to 213 °C. The same measure for `CN(C)C(=O)NNCC1CC2c3cccc4[nH]cc(c34)CC2N(C)C1` (stereo unspecified): 205 to 206 °C; for `N=C(NCC1(O)COc2ccccc2OC1)Nc1ccccc1`: 184 to 187 °C; for `COC(=O)C(COC(C)=O)C(=O)OC(C)(C)C` (stereo unspecified): 61 to 62 °C.

The compound `Cc1cc(OCCCC#Cc2ccc(OC(F)(F)F)cc2)ccc1OCC(=O)O` gave a melting point of 125 to 127 °C. The same measure for `CN(C(=O)C(C)(C)c1cc(C(F)(F)F)cc(C(F)(F)F)c1)c1cnc(N2CCOCC2)cc1-c1ccccc1Cl`: 134 to 136 °C; for `CC(C)(C)OC(=O)N1CCCN(c2ccnc3sc(C(N)=O)c(N)c23)CC1`: 177 to 178 °C. As for `COc1ccc(-c2cc3cc(F)c(F)cc3[nH]2)cc1NS(=O)(=O)c1cccc([N+](=O)[O-])c1`, the figure is 228 to 230 °C; as for `O=C1c2ccccc2C(Nc2ccccn2)N1CCCN1CC=C(c2ccccc2)CC1` (stereo unspecified), 153 °C; as for `C[C@@H](n1cnc2cc(F)c(F)cc2c1=O)[C@](O)(Cn1cncn1)c1ccc(F)cc1F`, 212 to 213 °C. Regarding `OC1CC(O)C2CC1NN2` (stereo unspecified), the melting point lay within 203 to 205 °C. The same measure for `CC(C)(C)C(O)C(CSc1ccc(Cl)cc1)n1cncn1` (stereo unspecified): 84 °C; for `CCOC(=O)C(C)Oc1ncn(-c2ccc(Cl)cc2)n1` (stereo unspecified): 62 to 64 °C.

Turning to `CC(C)C(=O)N[C@@H](CSC(=O)C(C)(C)C)C(=O)NCCSC(=O)C(C)(C)C`, the melting point was 106 to 108 °C.

`O=[N+]([O-])c1ccc(NN=C(c2ccc(O)cc2O)c2ccc(O)cc2O)c([N+](=O)[O-])c1` showed a melting point of 240 to 242 °C.

As for `COc1cc(N)c(Cl)cc1C(=O)NCC1CCN(CCCCCC(=O)c2c(C)oc3ccccc23)CC1`, the melting point was in the range of 133 to 135 °C. The same measure for `COc1cc(/C=C/C=C/C(=O)NCCCN2CCC(c3c[nH]c4ccccc34)CC2)cc(OC)c1O`: 176 to 179 °C. Compound `Cc1ccc(N(C#N)C(=O)CCCCC(=O)N(C#N)c2ccc(C)cc2C)c(C)c1` yielded a melting point of 120 to 122 °C. Compound `CC(C)(C)OC(=O)NC(C)(C)c1ccc(-c2nc(Nc3ccc(CCN4CCOCC4)cc3)ncc2C#N)cc1` yielded a melting point of 200 °C. Consider `CC(CC(C)(C)OOC(=O)NC1CCCCC1)OC(=O)NC1CCCCC1` (stereo unspecified), for which the melting point was 224 to 226 °C.

Regarding `C=C(C(=O)c1ccc(C(=O)O)cc1)c1ccc(OC)c(-c2cccs2)c1`, the melting point fell in the range of 163 to 164 °C. As for `O=c1ccc(C(F)(F)F)cn1-c1ccc([N+](=O)[O-])cc1Cl`, the figure is 218 °C. `CCC(=O)NN(C(C)=O)[C@@H]1c2cc(C#N)ccc2OC(C)(C)[C@H]1O` (relative stereo) had a melting point of 201 to 203 °C. As for `CC(C)(C)C(=O)OCC(CCn1cnc2c(=O)[nH]c(N)nc21)COC(=O)C(C)(C)C`, the figure is 225 to 237 °C. The same measure for `N#CCc1ccc(-n2cc(Cl)cn2)cc1Cl`: 140 °C; for `Cc1cc(F)ccc1-c1ccc(S(=O)(=O)N2c3ccccc3CC2C(=O)NCCOc2ccc(CC(=O)O)cc2)cc1` (stereo unspecified): 99 to 105 °C; for `CC(C)(C)OC(=O)N1CCn2c(c(C#N)c(Cl)c2C2CC2)C1`: 132 to 134 °C. Compound `Cc1cc(C2=NNC(=O)C2)ccc1[N+](=O)[O-]` registered a melting point of 218 to 219 °C. The same measure for `Nc1ccc(Cl)n2nc(SCc3ccccc3)nc12`: 113 to 114 °C; for `COc1ccc(C2Sc3ccccc3N(CCN(C)C)C(=O)C2OC(C)=O)cc1` (stereo unspecified): 134 to 135 °C; for `O=S1(=O)NC(c2ccccc2)Nc2ccccc21` (stereo unspecified): 126 to 128 °C.

For `Clc1ncnc(Cl)c1Oc1ccccc1`, the melting point was in the range of 89 to 90 °C. The same measure for `O=C1NC(=O)C(Cc2ccc(NC(=O)c3sc(Nc4ccccc4)c4c3CCc3cnoc3-4)cc2)S1` (stereo unspecified): 151 to 152 °C; for `CCCN(CCC)CCCCCOc1ccc2oc(-c3cccc(OC)c3)cc(=O)c2c1`: 80 to 81 °C. The same measure for `COc1c2c(c(OC(C)=O)c3c1C(=O)c1c(cc(OC(C)=O)c(C)c1OC(C)=O)C3=O)-c1c(cc3cnn(-c4ccccc4)c(=O)c3c1OC(C)=O)CC2`: 273 °C. `CC(=O)N=c1sc(C)cn1CC(O)c1cccs1` (stereo unspecified) displayed a melting point of 106 to 107 °C.

One may read the melting point as the temperature of the solid-liquid transition.
